Results as given in article PMC9950431, “A bivalent remipede toxin promotes calcium release via ryanodine receptor activation” (Nature Communications, 2023).

Legend:
NaV1.2 = assay: FLIPR Ca2+ assay, inhibition of endogenous NaV1.2; type: cell-based, human; details: for Ca2+ response relative to control response: 3 µM Xt3a pre-treatment, veratridine 70 μM, over 300 s
Method: SH-SY5Y human neuroblastoma cells (European Collection of Authenticated Cell Culture, Sigma Aldrich, 94030304-1VL) were cultured in RPMI media (ThermoFisher Scientific, Scoresby, Australia) supplemented with 15% foetal bovine serum and L-glutamine (1 mM) and passaged at approximately 80% confluency with TrypLE Express (Thermo Fisher, Australia). For fluorescence imaging, cells were plated on CellBIND (Corning) 384-well black-walled imaging plates at a density of 20,000–30,000 cells/well in complete media and cultured for 48 h at 37 °C/5% CO2.
Briefly, SH-SY5Y cells were loaded with Calcium 4 no-wash dye (Molecular Devices) diluted in physiological salt solution (composition in mM: NaCl 140, D-glucose 11.5, KCl 5.9, MgCl2 1.4, NaH2PO4 1.2, NaHCO3 5, CaCl2 1.8, HEPES 10) for 30 min at 37 °C. A two-addition FLIPR^Tetra (Molecular Devices) protocol using the following settings was used to measure fluorescence responses: excitation 470–495 nm; emission 515–575 nm; excitation intensity 80%; excitation duration 0.8 s; gain 140; read interval 1/s; read number 300/addition. Responses mediated via endogenously expressed ion channels were elicited by addition of: choline (30 μM)/PNU-120596 (10 μM) for α7 nAChR-mediated responses; nicotine (30 μM) for α3β2/α3β4 nAChR-mediated responses; KCl (90 mM)/CaCl2 (5 mM) for CaV1.3-mediated responses; KCl (90 mM)/CaCl2 (5 mM) + nifedipine (10 μM) for CaV2.2-mediated responses; vertridine (70 μM) for NaV1.2-mediated responses; and veratridine (4 μM)/OD1 (300 nM) for NaV1.7-mediated responses. Raw fluorescence readings were converted to response over baseline using the analysis tool Screenworks 3.1.1.4 (Molecular Devices) and were expressed relative to the maximum increase in fluorescence of control responses and plotted using GraphPad Prism 9.3.1.
In the cell-based FLIPR assays statistical analysis was performed using GraphPad Prism 9.3.1. Statistical significance was defined as p < 0.05, and determined by one-sample t-test assessing difference to the control value of 100%. In α7 nAChR, α3-containing nAChR, CaV1.3, CaV2.2, NaV1.2 and NaV1.7 channels (Supplementary Fig. 5B), with distribution (t) and degrees of freedom (df) being: t = 0.9683, df = 2 (α7); t = 1.338, df = 2 (α3); t = 1.775, df = 2 (NaV1.2); t = 1.478

RyR1 = target: T1, RyR1 (Oryctolagus cuniculus, UniProt P11716); assay: Single channel electrophysiology of RyR1 channels inserted into lipid bilayers (exposure to peptide); type: biochemical, New Zealand white rabbit (skeletal SR); details: for relPo: without WO, relative to control
T1 construct: skeletal SR vesicles were isolated from the back and leg muscles of mature female New Zealand white rabbits; from tissue; host or cells: rabbit back and leg skeletal muscle, sarcoplasmic reticulum vesicles
T1 sequence (P11716 whole entry): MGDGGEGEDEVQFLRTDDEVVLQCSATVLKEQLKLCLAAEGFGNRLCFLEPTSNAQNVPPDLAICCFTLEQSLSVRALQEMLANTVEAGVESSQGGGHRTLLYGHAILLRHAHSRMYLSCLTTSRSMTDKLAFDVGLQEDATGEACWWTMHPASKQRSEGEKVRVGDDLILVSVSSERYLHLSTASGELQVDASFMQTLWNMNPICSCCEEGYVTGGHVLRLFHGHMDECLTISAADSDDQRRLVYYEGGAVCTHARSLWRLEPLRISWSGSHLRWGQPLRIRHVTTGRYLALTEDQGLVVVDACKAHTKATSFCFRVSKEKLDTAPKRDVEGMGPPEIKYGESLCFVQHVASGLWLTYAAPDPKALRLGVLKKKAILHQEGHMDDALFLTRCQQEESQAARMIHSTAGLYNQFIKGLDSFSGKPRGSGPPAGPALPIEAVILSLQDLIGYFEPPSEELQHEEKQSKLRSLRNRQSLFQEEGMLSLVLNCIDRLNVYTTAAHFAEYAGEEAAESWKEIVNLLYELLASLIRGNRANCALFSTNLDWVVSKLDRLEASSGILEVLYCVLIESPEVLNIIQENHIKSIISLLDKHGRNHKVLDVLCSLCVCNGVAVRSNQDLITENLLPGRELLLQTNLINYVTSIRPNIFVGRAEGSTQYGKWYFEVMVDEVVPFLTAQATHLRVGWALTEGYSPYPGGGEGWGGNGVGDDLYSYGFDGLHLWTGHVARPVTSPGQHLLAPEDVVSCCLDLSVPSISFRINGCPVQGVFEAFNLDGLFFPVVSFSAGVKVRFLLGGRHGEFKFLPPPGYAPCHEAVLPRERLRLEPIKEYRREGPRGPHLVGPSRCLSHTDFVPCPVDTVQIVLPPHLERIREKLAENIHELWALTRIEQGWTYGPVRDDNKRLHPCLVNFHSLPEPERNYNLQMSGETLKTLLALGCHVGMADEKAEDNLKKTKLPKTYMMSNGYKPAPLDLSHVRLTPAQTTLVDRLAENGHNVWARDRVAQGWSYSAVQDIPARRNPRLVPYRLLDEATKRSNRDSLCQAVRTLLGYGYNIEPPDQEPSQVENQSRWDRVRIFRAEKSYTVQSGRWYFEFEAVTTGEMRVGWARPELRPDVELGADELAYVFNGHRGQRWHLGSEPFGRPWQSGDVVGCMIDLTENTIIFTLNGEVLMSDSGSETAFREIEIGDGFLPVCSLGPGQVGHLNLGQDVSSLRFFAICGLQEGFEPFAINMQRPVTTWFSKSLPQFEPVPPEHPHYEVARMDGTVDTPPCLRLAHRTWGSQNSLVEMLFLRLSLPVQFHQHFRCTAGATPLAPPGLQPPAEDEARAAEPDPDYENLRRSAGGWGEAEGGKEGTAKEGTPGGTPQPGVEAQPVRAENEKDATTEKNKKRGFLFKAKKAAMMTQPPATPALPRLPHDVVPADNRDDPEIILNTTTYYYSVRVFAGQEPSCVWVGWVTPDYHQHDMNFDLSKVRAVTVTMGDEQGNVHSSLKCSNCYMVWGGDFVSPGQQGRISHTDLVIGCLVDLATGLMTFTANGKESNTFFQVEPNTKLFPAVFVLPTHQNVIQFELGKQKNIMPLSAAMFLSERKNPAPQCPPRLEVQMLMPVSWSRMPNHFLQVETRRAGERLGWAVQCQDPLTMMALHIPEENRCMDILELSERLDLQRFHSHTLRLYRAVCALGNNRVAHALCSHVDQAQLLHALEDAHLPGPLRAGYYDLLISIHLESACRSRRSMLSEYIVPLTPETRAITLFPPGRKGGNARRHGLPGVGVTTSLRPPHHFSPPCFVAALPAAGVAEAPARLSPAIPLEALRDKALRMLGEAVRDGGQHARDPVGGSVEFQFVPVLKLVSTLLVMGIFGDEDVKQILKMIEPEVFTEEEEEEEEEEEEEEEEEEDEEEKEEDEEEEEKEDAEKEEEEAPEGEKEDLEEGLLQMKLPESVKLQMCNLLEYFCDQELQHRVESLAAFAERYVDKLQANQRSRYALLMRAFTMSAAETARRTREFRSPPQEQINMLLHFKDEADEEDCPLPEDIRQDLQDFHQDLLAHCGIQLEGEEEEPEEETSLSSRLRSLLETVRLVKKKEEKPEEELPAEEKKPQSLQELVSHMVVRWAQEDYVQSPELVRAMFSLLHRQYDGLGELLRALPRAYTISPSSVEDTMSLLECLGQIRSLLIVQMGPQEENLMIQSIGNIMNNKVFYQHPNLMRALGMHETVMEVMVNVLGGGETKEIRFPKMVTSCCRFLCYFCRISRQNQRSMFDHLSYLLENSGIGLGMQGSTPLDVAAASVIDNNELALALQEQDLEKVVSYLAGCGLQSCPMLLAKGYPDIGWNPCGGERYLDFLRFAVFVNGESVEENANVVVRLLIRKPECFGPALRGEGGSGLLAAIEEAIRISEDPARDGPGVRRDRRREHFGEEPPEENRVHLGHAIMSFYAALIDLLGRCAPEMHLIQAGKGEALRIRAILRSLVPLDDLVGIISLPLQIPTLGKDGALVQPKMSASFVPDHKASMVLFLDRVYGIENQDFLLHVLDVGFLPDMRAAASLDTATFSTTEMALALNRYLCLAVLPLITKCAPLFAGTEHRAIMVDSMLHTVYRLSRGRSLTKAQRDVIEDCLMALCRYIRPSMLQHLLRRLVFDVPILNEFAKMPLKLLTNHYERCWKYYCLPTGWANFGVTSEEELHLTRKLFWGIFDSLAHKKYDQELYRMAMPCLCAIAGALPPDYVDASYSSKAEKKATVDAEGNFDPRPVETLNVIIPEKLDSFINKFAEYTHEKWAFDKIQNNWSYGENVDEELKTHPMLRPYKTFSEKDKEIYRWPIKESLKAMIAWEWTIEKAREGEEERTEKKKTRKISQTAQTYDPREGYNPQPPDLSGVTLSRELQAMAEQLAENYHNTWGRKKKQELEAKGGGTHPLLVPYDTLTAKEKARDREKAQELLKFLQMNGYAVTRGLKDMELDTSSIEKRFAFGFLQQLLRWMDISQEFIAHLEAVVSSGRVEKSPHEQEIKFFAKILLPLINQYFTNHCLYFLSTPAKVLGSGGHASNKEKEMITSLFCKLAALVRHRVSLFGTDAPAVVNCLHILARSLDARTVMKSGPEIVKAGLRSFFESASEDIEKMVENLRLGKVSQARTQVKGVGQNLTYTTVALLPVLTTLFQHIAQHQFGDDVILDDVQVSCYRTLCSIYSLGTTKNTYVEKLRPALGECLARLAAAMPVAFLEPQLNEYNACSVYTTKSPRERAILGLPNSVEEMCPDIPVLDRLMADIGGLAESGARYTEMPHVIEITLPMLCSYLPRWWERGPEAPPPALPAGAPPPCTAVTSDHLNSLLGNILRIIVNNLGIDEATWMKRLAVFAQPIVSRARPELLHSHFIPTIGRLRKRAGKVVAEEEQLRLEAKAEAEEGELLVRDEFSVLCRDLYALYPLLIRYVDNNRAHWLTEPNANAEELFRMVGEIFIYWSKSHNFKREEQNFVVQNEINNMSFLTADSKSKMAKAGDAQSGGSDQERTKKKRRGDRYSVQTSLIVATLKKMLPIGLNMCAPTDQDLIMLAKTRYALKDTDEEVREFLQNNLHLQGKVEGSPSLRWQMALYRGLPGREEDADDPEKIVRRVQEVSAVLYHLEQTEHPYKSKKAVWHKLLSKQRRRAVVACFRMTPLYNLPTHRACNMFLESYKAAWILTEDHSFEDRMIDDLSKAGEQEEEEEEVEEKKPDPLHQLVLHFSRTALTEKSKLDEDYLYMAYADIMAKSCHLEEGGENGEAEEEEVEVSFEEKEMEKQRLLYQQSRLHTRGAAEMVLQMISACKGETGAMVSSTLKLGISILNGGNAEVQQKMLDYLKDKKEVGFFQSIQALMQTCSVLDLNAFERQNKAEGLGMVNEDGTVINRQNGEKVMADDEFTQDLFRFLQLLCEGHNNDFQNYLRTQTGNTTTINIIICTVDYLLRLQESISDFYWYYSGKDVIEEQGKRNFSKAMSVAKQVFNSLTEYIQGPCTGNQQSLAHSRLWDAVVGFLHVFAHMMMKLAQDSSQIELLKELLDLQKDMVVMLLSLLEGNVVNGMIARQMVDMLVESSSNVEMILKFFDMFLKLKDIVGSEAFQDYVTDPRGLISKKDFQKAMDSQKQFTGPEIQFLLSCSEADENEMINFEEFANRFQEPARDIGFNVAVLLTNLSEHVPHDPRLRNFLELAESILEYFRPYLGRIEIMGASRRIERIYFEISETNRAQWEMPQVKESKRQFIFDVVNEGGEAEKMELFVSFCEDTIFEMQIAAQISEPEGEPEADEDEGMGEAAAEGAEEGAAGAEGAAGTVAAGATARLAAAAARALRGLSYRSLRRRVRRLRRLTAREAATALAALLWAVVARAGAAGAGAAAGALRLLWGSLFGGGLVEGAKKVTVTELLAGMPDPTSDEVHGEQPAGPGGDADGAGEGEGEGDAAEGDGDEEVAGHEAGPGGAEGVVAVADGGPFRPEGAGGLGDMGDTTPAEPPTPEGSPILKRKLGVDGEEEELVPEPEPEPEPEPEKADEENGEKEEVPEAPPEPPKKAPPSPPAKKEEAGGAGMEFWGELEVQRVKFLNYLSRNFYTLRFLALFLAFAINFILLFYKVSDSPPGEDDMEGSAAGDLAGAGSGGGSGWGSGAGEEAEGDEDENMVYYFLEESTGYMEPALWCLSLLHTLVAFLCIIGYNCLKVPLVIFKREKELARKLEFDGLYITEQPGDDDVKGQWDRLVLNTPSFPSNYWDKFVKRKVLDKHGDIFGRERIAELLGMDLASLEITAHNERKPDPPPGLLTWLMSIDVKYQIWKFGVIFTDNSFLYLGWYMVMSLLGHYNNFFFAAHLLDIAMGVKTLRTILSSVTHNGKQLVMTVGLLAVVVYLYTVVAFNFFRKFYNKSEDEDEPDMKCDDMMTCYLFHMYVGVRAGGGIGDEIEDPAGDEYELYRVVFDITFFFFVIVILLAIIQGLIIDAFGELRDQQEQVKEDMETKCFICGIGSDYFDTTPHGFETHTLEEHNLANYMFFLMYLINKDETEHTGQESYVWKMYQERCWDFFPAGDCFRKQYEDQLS
Method: Cardiac SR was prepared from mature female crossbred sheep hearts, and skeletal SR vesicles were isolated from the back and leg muscles of mature female New Zealand white rabbits[29],[54] with approval from the ANU Animal Experiment Ethics Committee Protocol Number A2015/35. […] Solutions for vesicle incorporation contained (mM): cis 230 caesium methanesulfonate (CsMS); 20 CsCl; 1 CaCl2 and 10 […] (TES) pH 7.4 and trans 30 CsMS; 20 CsCl; 1 CaCl2 10 TES; pH 7.4. […] Following incorporation, 200 mM CsMS was added to the trans solution and the cis solution exchanged with recording solution containing (mM): 230 CsMS; 20 CsCl; 0.001 CaCl2;10 TES and pH 7.4, with [Ca^2+] set by a [BAPTA] determined using a Ca^2+ electrode. The cytoplasmic and luminal solutions contained 1 μM and 1 mM Ca^2+ respectively, with symmetrical 250/250 mM CsMS. Bilayer voltage was switched between +40 mV and −40 mV (cytoplasmic voltage relative to grounded luminal solution) every 30 s. The activity of the RyR channels used here included 1 µM Ca^2+ in the cytoplasmic solution and 1 mM Ca^2+ in the luminal solution[29],[55]. Electrophysiology experiments were analysed using Channel 2 (P.W. Gage, M. Smith, Australian National University) and Channel 3 (N.W. Laver, University of Newcastle, Australia) software, available from the authors upon request. Statistical analyses were performed using Microsoft Excel (Office 365). […] Following most incorporation events, a single channel only was active in the bilayer and channel open probability (Po), mean open time (To), mean closed time (Tc) and open event frequency (Fo) were measured. When 2–4 channels were active in a bilayer, PO was approximated from the fractional mean current (I’F), i.e., mean current divided by maximum current. I’F is equal to PO in a single channel and indicates the average PO of multiple channels in a bilayer. […] Experiments at UN also included a minority of multi-channel experiments. The bilayer rigs, solution composition, source of channels, data acquisition and analyses methods were all identical.
Statistical analysis of single channel data was performed using Excel spreadsheets and embedded Students t-test functions or a sign test as indicated in the graphs in Figs. 1 and 3.

φ-Xibalbin3-Xt3a was tested, and the “Ca2+ response relative to control response” value (NaV1.2; replicate 1) was 91.9349%, the “Ca2+ response relative to control response” value (NaV1.2; replicate 2) was 100.571% and the “Ca2+ response relative to control response” value (NaV1.2; replicate 3) was 88.9832%. For the same substance, the “inhibition of Ca2+ responses” value (NaV1.2; Xt3a 3 µM) was “did not inhibit Ca^2+ responses”, the “activity against RyR1 (discussion)” value (RyR1) was “even more potent than IpTxA” and the relPo (RyR1; 10 pM Xt3a, mean (sem in row below)) was 4.209. It also gave a relPo (RyR1; 10 pM Xt3a, replicate CT1012 n) of 4.171, a relPo (RyR1; 10 pM Xt3a, replicate CT1013 n) of 17.6667 and a relPo (RyR1; 10 pM Xt3a, replicate CT1024 n) of 1.745. The relPo (RyR1; 10 pM Xt3a, replicate CT1051 n) was 0.553, the relPo (RyR1; 10 pM Xt3a, replicate CT1052 n) was 1.086 and the relPo (RyR1; 10 pM Xt3a, replicate CT1055 n) was 3.339. It also gave a relPo (RyR1; 10 pM Xt3a, replicate CT1143 n) of 0.669, a relPo (RyR1; 10 pM Xt3a, replicate CT1144 n) of 11.3 and a relPo (RyR1; 10 pM Xt3a, replicate CT1145 n) of 13.6431. The relPo (RyR1; 10 pM Xt3a, replicate CT1146 n) was 1.397, the “channel open probability (PO) relative to baseline” value (RyR1; 10 pM to 1 µM) was “significant changes in all Xt3a concentrations tested” and the “substate level, % of maximum conductance” value (RyR1; 100 pM Xt3a, −40 mV, prolonged gating to substate levels) was under 50%. The relPo (RyR1; 100 pM Xt3a, mean (sem in row below)) was 2.735, the relPo (RyR1; 100 pM Xt3a, replicate CT1012 n) was 1.829 and the relPo (RyR1; 100 pM Xt3a, replicate CT1013 n) was 17. For the same substance, the relPo (RyR1; 100 pM Xt3a, replicate CT1024 n) was 1.169, the relPo (RyR1; 100 pM Xt3a, replicate CT1051 n) was 0.6185 and the relPo (RyR1; 100 pM Xt3a, replicate CT1052 n) was 1.17. It also gave a relPo (RyR1; 100 pM Xt3a, replicate CT1055 n) of 1.101, a relPo (RyR1; 100 pM Xt3a, replicate CT1143 n) of 1.262 and a relPo (RyR1; 100 pM Xt3a, replicate CT1144 n) of 6.375. The relPo (RyR1; 100 pM Xt3a, replicate CT1145 n) was 3.125, the relPo (RyR1; 100 pM Xt3a, replicate CT1146 n) was 1.411 and the “decline in PO compared with 10 nM Xt3a” value (RyR1; 0.1–1 µM Xt3a) was ~ 50%. For the same substance, the “full conductance channel openings (high affinity activation)” value (RyR1; Xt3a up to 10 nM) was “led to an increase in full conductance channel openings” and the “voltage-dependent promotion of channel substate activity” value (RyR1; −40 mV vs +40 mV, RyR1 and RyR2) was “greater in the presence of nanomolar concentrations of Xt3a in RyR1 than in RyR2”.
